Data as given in ChEMBL document CHEMBL3593175, “Bicyclic [3.3.0]-Octahydrocyclopenta[c]pyrrolo Antagonists of Retinol Binding Protein 4: Potential Treatment of Atrophic Age-Related Macular Degeneration and Stargardt Disease” (J Med Chem, 2015).

Key:
[1] = biological target: T1, Retinol-binding protein 4 (Homo sapiens, UniProt P02753); assay: Displacement of [3H]-retinol from RBP4 (unknown origin) by scintillation proximity assay
[2] = biological target: T1, Retinol-binding protein 4; assay: Inhibition of retinol-induced interaction of bacterially expressed MBP-tagged RBP4 (unknown origin) with Eu3+ cryptate labeled TTR by HTRF assay
[3] = Metabolic stability in rat liver microsomes assessed as compound remaining at 10 uM after 30 mins; assay type: ADME; details: read-out: Stability
[4] = Metabolic stability in human liver microsomes assessed as compound remaining at 10 uM after 30 mins; assay type: ADME; details: read-out: Stability

| Structure (SMILES) | IC50 [1] [µM] | IC50 [2] [µM] | remaining at 0.5 h, 10 µM [3] [%] | remaining at 0.5 h, 10 µM [4] [%] |
| --- | --- | --- | --- | --- |
| Cc1cc(-c2nnn[nH]2)nc(N2C[C@H]3C[C@@H](c4ccccc4C(F)(F)F)C[C@H]3C2)n1 |  | 0.175 |  |  |
| Cc1cc(C(=O)O)nc(N2CCC(c3ccccc3C(F)(F)F)CC2)n1 | 0.0353 | 0.188 | 96 | 68 |
| Cc1cc(C(=O)O)nc(N2CCN(c3ccccc3C(F)(F)F)CC2)n1 | 0.0895 | 0.511 | 63 | 18 |
| Cc1cc(C(=O)O)nc(N2C[C@H]3C[C@@H](c4cnccc4C(F)(F)F)C[C@H]3C2)n1 | 0.0518 | 0.821 |  |  |
| Cc1nc(N2C[C@H]3C[C@@H](c4ccccc4C(F)(F)F)C[C@H]3C2)ncc1C(=O)O | 0.0408 | 0.523 |  |  |
| CC(C)c1cc(C(=O)O)nc(N2C[C@H]3C[C@@H](c4ccccc4C(F)(F)F)C[C@H]3C2)n1 | 0.153 |  |  |  |
| Cc1cc(C(=O)O)nc(N2C[C@H]3C[C@@H](c4cc(F)ccc4Cl)C[C@H]3C2)n1 | 0.532 | 0.347 |  |  |
| O=C(O)c1cncc(N2C[C@H]3C[C@@H](c4ccccc4C(F)(F)F)C[C@H]3C2)n1 | 0.166 |  |  |  |

The remaining lines, values ahead:

| IC50 [1] [µM] | IC50 [2] [µM] | remaining at 0.5 h, 10 µM [3] [%] | remaining at 0.5 h, 10 µM [4] [%] | Structure (SMILES) |
| --- | --- | --- | --- | --- |
| 0.0041 | 0.132 |  |  | COC(=O)c1cc(C)nc(N2CCC(c3ccccc3C(F)(F)F)CC2)n1 |
| 0.0128 | 0.0812 |  |  | COc1cc(C(=O)O)nc(N2C[C@H]3C[C@@H](c4ccccc4C(F)(F)F)C[C@H]3C2)n1 |
| 0.0208 |  |  |  | O=C(O)c1ccnc(N2C[C@H]3C[C@@H](c4ccccc4C(F)(F)F)C[C@H]3C2)n1 |
| 0.0097 | 1.4 | 0 | 0 | COC(=O)c1cc(C)nc(N2CCN(c3ccccc3C(F)(F)F)CC2)n1 |
| 0.0033 | 0.248 |  |  | Cc1cc(C(N)=O)nc(N2C[C@H]3C[C@@H](c4ccccc4C(F)(F)F)C[C@H]3C2)n1 |
